Marks after values point to notes of the source that are not given here.
Columns and labels:
male C57BL/6 mice [1] = assay: TBARS value of liver homogenate; conditions: for TBARS value: liver homogenate, alcoholic liquid diet, 4 weeks
male C57BL/6 mice [2] = assay: Amounts of TAG and TC in serum; type: in vivo; conditions: EK100 1, 5, 10 mg/kg/day vs EtOH group; p<0.05; FIG. 2A
male C57BL/6 mice [3] = assay: Amounts of TAG, TC and bile acid in feces; type: in vivo; conditions: EK100 1, 5, 10 mg/kg/day vs EtOH group, feces of end of week 3, p<0.05
male C57BL/6 mice [4] = assay: Amounts of TAG and TC in liver; type: in vivo; conditions: EK100 1, 5, 10 mg/kg/day vs EtOH group; p<0.05; FIG. 2B
[5] = tested on: acetaldehyde dehydrogenase (ALDH); assay: Activity of ALDH in liver homogenate; type: in vivo, mice; conditions: EK100 1, 5, 10 mg/kg/day vs control group; p<0.05; FIG. 14B
Method: D-3 were analyzed. The operation steps were as follows: (i) 100 μl of liver homogenate and 1 ml of sodium pyrophosphate buffer (pH 8.8, 1 mM NAD^+, 0.2 mM 4-methylpyrazole, 1 mM MgCl2, 2 μM rotenone, 1% Triton X-100) were well mixed; the mixture was left standing in the dark at room temperature for 20 minutes; and then the absorbance (A) of the mixture was measured at 340 nm wavelength; (ii) 100 μl of liver homogenate and 1 ml of sodium pyrophosphate buffer (pH 8.8, 1 mM NAD^+, 0.2 mM 4-methylpyrazole, 1 mM MgCl2, 2 μM rotenone, 1% Triton X-100, 5 mM acetaldehyde) were well mixed; the mixture was left standing in the dark at room temperature for 20 minutes, and then the absorbance (B) of the mixture was measured at 340 nm wavelength; (iii) absorbance (A) and absorbance (B) were substituted into formula 3 below to calculate the activity of ALDH (μmole/min/mg protein).

[6] = tested on: Superoxide dismutase (SOD); assay: Activity of SOD in mouse liver; type: in vivo, mice; conditions: for Activity of SOD: liver homogenate, alcoholic liquid diet, 4 weeks
male C57BL/6 mice [7] = assay: Amount of glutathione (GSH) in liver homogenate; conditions: for Amount of GSH: liver homogenate, alcoholic liquid diet, 4 weeks
IL-1β = assay: Concentration of IL-1β in liver (ELISA); type: in vivo, mice; conditions: EK100 1, 5, 10 mg/kg/day vs EtOH group; p<0.05; FIG. 9B
Text: D-3 were taken and diluted with Calibrator Diluent RD 5-17 to ⅓ of the original concentration respectively, and then a Quantikine® Rat TNF-α or a Quantikine® Rat IL-1β commercial kit (purchased from R&D Systems company, United States) was used for the Enzyme-linked immune-sorption assay (ELISA) to measure the amounts of tumor necrosis factor-alpha (TNF-α) and interleukin-1β (IL-1β) therein. […]

[8] = tested on: aspartate aminotransferase (AST); assay: Activity of AST in serum; type: in vivo, mice; conditions: EK100 1, 5, 10 mg/kg/day vs EtOH group; p<0.05; FIG. 8
Text: It has been known that both aspartate aminotransferase (AST) and alanine aminotransferase (ALT) are amino acid metabolic enzymes, which are widely present in the heart, liver, skeletal muscle, kidney and brain. When cells in organs are injured, AST and ALT will be released into the blood. Therefore, the activities of AST and ALT can be used as the injury markers of the above organs to detect organ injuries, wherein the higher activities of AST and ALT represent that organ injuries are more serious. For example, there is much more ALT in the liver. A higher activity of ALT in the liver would indicate a more serious injury.
To understand the effects of alcohol consumption and ergostatrien-3β-ol intake on the injury conditions of mice organs, mouse serum samples of each group provided in [Preparation Examples] C-2 (200 μl per group) were placed into automatic dry-biochemistry analyzer (Arkray, Inc., Japan, Spotechem™ EZ, SP-4430) with AST/ALT expert analytic test paper (Arkray, Inc., Japan, Spotechem™ II) to detect the activities of AST and ALT.

[9] = EK100 1, 5, 10 mg/kg/day vs EtOH group, p<0.05

SMILES: CC(C)[C@@H](C)/C=C/[C@@H](C)[C@H]1CC[C@H]2C3=CCC4C[C@@H](O)CC[C@]4(C)C3=CC[C@]12C (stereo partly shown) [EK100]
- TBARS value of liver compared to EtOH (male C57BL/6 mice [1]; [9]): significantly decreased
- TBARS value (male C57BL/6 mice [1]; EK100_1X: 1 mg/kg/day gavage): 0.56 ± 0.04^b nmol malondialdehyde/mg protein
- TBARS value (male C57BL/6 mice [1]; EK100_5X: 5 mg/kg/day gavage): 0.54 ± 0.05^b nmol malondialdehyde/mg protein
- TBARS value (male C57BL/6 mice [1]; EK100_10X: 10 mg/kg/day gavage): 0.46 ± 0.04^b nmol malondialdehyde/mg protein
- Amount of TAG in serum compared to EtOH (male C57BL/6 mice [2]): significantly decreased
- Amount of TC in serum compared to EtOH (male C57BL/6 mice [2]): significantly decreased
- Amount of TAG in feces compared to EtOH (male C57BL/6 mice [3]; FIG. 2C): significantly increased
- Amount of TC in feces compared to EtOH (male C57BL/6 mice [3]; FIG. 2C): significantly increased
- Amount of bile acid in feces compared to EtOH (male C57BL/6 mice [3]; FIG. 3): significantly increased
- Amount of TAG in liver compared to EtOH (male C57BL/6 mice [4]): significantly decreased
- Amount of TC in liver compared to EtOH (male C57BL/6 mice [4]): significantly decreased
- Activity of ALDH in liver compared to control [5]: significantly increased
- Activity of SOD in liver compared to EtOH ([6]; EK100 10 mg/kg/day (EK100_10X) vs EtOH group, p<0.05): significantly increased
- Activity of SOD ([6]; EK100_1X: 1 mg/kg/day gavage): 77.56 ± 3.33^c munit/mg protein
- Activity of SOD ([6]; EK100_5X: 5 mg/kg/day gavage): 90.40 ± 6.16^b munit/mg protein
- Activity of SOD ([6]; EK100_10X: 10 mg/kg/day gavage): 118.47 ± 4.64^a munit/mg protein
- Amount of GSH in liver compared to EtOH (male C57BL/6 mice [7]; [9]): significantly increased
- Amount of GSH (male C57BL/6 mice [7]; EK100_1X: 1 mg/kg/day gavage): 49.08 ± 4.78^b nmol/mg protein
- Amount of GSH (male C57BL/6 mice [7]; EK100_5X: 5 mg/kg/day gavage): 71.14 ± 4.17^a nmol/mg protein
- Amount of GSH (male C57BL/6 mice [7]; EK100_10X: 10 mg/kg/day gavage): 77.21 ± 2.95^a nmol/mg protein
- Concentration of IL-1β in liver compared to EtOH (IL-1β): significantly decreased
- Activity of AST in serum compared to EtOH [8]: significantly decreased
